# According to ChEMBL document CHEMBL1629583, “Establishment of in vitro susceptibility testing methodologies and comparative activities of piperacillin in combination with the penem {beta}-lactamase inhibitor BLI-489” (2009):
# Tests used:
# Type in all cases: functional
# Burkholderia cepacia = assay: Antimicrobial activity against Burkholderia cepacia clinical isolate after 18 to 22 hrs by broth microdilution method
# Pseudomonas aeruginosa = assay: Antimicrobial activity against Pseudomonas aeruginosa clinical isolate after 18 to 22 hrs by broth microdilution method
# Haemophilus influenzae = assay: Antimicrobial activity against beta-lactamase-negative Haemophilus influenzae clinical isolate after 18 to 22 hrs by broth microdilution method
# [1] = system: Haemophilus parainfluenzae; assay: Antimicrobial activity against Haemophilus parainfluenzae clinical isolate after 18 to 22 hrs by broth microdilution method
# Moraxella catarrhalis = assay: Antimicrobial activity against Moraxella catarrhalis clinical isolate after 18 to 22 hrs by broth microdilution method
# Staphylococcus aureus [2] = assay: Antimicrobial activity against methicillin-resistant Staphylococcus aureus clinical isolate after 18 to 22 hrs by broth microdilution method
# Staphylococcus aureus [3] = assay: Antimicrobial activity against methicillin-susceptible Staphylococcus aureus clinical isolate after 18 to 22 hrs by broth microdilution method
# [4] = system: Staphylococcus epidermidis; assay: Antimicrobial activity against methicillin-resistant Staphylococcus epidermidis clinical isolate after 18 to 22 hrs by broth microdilution method
# [5] = system: Staphylococcus haemolyticus; assay: Antimicrobial activity against Staphylococcus haemolyticus clinical isolate after 18 to 22 hrs by broth microdilution method
# Enterococcus faecalis [6] = assay: Antimicrobial activity against Enterococcus faecalis clinical isolate after 18 to 22 hrs by broth microdilution method
# Enterococcus faecium [7] = assay: Antimicrobial activity against Enterococcus faecium clinical isolate after 18 to 22 hrs by broth microdilution method
# Enterococcus faecalis [8] = assay: Antimicrobial activity against vancomycin-resistant Enterococcus faecalis clinical isolate after 18 to 22 hrs by broth microdilution method
# Enterococcus faecium [9] = assay: Antimicrobial activity against vancomycin-resistant Enterococcus faecium clinical isolate after 18 to 22 hrs by broth microdilution method
# Enterococcus avium = assay: Antimicrobial activity against Enterococcus avium clinical isolate after 18 to 22 hrs by broth microdilution method
# Streptococcus pneumoniae [10] = assay: Antimicrobial activity against penicillin-intermediate Streptococcus pneumoniae clinical isolate after 18 to 22 hrs by broth microdilution method
# Streptococcus pneumoniae [11] = assay: Antimicrobial activity against penicillin-resistant Streptococcus pneumoniae clinical isolate after 18 to 22 hrs by broth microdilution method
# Streptococcus pyogenes = assay: Antimicrobial activity against Streptococcus pyogenes clinical isolate after 18 to 22 hrs by broth microdilution method
# [12] = system: Enterococcus casseliflavus; assay: Antimicrobial activity against Enterococcus casseliflavus clinical isolate after 18 to 22 hrs by broth microdilution method
# Enterococcus gallinarum = assay: Antimicrobial activity against Enterococcus gallinarum clinical isolate after 18 to 22 hrs by broth microdilution method
# Enterococcus hirae = assay: Antimicrobial activity against Enterococcus hirae clinical isolate after 18 to 22 hrs by broth microdilution method
# Streptococcus agalactiae = assay: Antimicrobial activity against Streptococcus agalactiae clinical isolate after 18 to 22 hrs by broth microdilution method
# Citrobacter koseri = assay: Antimicrobial activity against Citrobacter koseri clinical isolate after 18 to 22 hrs by broth microdilution method
# Escherichia coli [13] = assay: Antimicrobial activity against class A extended spectrum beta-lactamase- and class D OXA- producing Escherichia coli clinical isolate after 18 to 22 hrs by broth microdilution method
# Escherichia coli [14] = assay: Antimicrobial activity against Escherichia coli clinical isolate after 18 to 22 hrs by broth microdilution method
# Escherichia coli [15] = assay: Antimicrobial activity against class A extended spectrum beta-lactamase- producing Escherichia coli clinical isolate after 18 to 22 hrs by broth microdilution method
# Citrobacter freundii [16] = assay: Antimicrobial activity against AmpC beta-lactamase-producing Citrobacter freundii clinical isolate after 18 to 22 hrs by broth microdilution method
# Enterobacter cloacae = assay: Antimicrobial activity against AmpC beta-lactamase-producing Enterobacter cloacae clinical isolate after 18 to 22 hrs by broth microdilution method
# Serratia marcescens [17] = assay: Antimicrobial activity against AmpC beta-lactamase-producing Serratia marcescens clinical isolate after 18 to 22 hrs by broth microdilution method
# Klebsiella aerogenes = assay: Antimicrobial activity against Enterobacter aerogenes clinical isolate after 18 to 22 hrs by broth microdilution method
# Citrobacter freundii [18] = assay: Antimicrobial activity against Citrobacter freundii clinical isolate after 18 to 22 hrs by broth microdilution method
# Klebsiella pneumoniae [19] = assay: Antimicrobial activity against class A extended spectrum beta-lactamase- and class D OXA- producing Klebsiella pneumoniae clinical isolate after 18 to 22 hrs by broth microdilution method
# Klebsiella pneumoniae [20] = assay: Antimicrobial activity against AmpC- producing Klebsiella pneumoniae clinical isolate after 18 to 22 hrs by broth microdilution method
# Serratia marcescens [21] = assay: Antimicrobial activity against Serratia marcescens clinical isolate after 18 to 22 hrs by broth microdilution method
# Morganella morganii = assay: Antimicrobial activity against Morganella morganii clinical isolate after 18 to 22 hrs by broth microdilution method
# Proteus mirabilis = assay: Antimicrobial activity against Proteus mirabilis clinical isolate after 18 to 22 hrs by broth microdilution method
# Proteus vulgaris = assay: Antimicrobial activity against Proteus vulgaris clinical isolate after 18 to 22 hrs by broth microdilution method
# Providencia rettgeri = assay: Antimicrobial activity against Providencia rettgeri clinical isolate after 18 to 22 hrs by broth microdilution method
# Acinetobacter baumannii = assay: Antimicrobial activity against Acinetobacter baumannii clinical isolate after 18 to 22 hrs by broth microdilution method
# Acinetobacter junii = assay: Antimicrobial activity against Acinetobacter junii clinical isolate after 18 to 22 hrs by broth microdilution method
# Acinetobacter lwoffii = assay: Antimicrobial activity against Acinetobacter lwoffii clinical isolate after 18 to 22 hrs by broth microdilution method
smiles,measurement,setting,value
CCN1CCN(C(=O)N[C@@H](C(=O)N[C@@H]2C(=O)N3[C@@H]2SC(C)(C)[C@@H]3C(=O)O)c2ccccc2)C(=O)C1=O [PIPERACILLIN],MIC50,Burkholderia cepacia,32 µg/mL
same,MIC90,Burkholderia cepacia,128 µg/mL
same,MIC50,Pseudomonas aeruginosa,16 µg/mL
same,MIC90,Pseudomonas aeruginosa,> 128 µg/mL
same,MIC50,Haemophilus influenzae,0.015 µg/mL
same,MIC90,Haemophilus influenzae,0.03 µg/mL
same,MIC50,[1],0.06 µg/mL
same,MIC90,[1],0.5 µg/mL
same,MIC50,Moraxella catarrhalis,0.25 µg/mL
same,MIC90,Moraxella catarrhalis,8 µg/mL
same,MIC50,Staphylococcus aureus [2],> 128 µg/mL
same,MIC50,Staphylococcus aureus [3],64 µg/mL
same,MIC90,Staphylococcus aureus [3],> 128 µg/mL
same,MIC50,[4],8 µg/mL
same,MIC90,[4],64 µg/mL
same,MIC50,[5],> 128 µg/mL
same,MIC90,[5],> 128 µg/mL
same,MIC,Enterococcus faecalis [6],2 µg/mL
same,MIC50,Enterococcus faecalis [6],2 µg/mL
same,MIC90,Enterococcus faecalis [6],4 µg/mL
same,MIC50,Enterococcus faecium [7],32 µg/mL
same,MIC90,Enterococcus faecium [7],> 128 µg/mL
same,MIC50,Enterococcus faecalis [8],2 µg/mL
same,MIC90,Enterococcus faecalis [8],> 128 µg/mL
same,MIC,Enterococcus faecium [9],> 128 µg/mL
same,MIC50,Enterococcus faecium [9],> 128 µg/mL
same,MIC50,Enterococcus avium,16 µg/mL
same,MIC90,Enterococcus avium,64 µg/mL
same,MIC50,Streptococcus pneumoniae [10],0.25 µg/mL
same,MIC90,Streptococcus pneumoniae [10],1 µg/mL
same,MIC50,Streptococcus pneumoniae [11],2 µg/mL
same,MIC90,Streptococcus pneumoniae [11],4 µg/mL
same,MIC50,Streptococcus pyogenes,0.03 µg/mL
same,MIC90,Streptococcus pyogenes,0.06 µg/mL
same,MIC50,[12],4 µg/mL
same,MIC90,[12],16 µg/mL
same,MIC50,Enterococcus gallinarum,4 µg/mL
same,MIC90,Enterococcus gallinarum,16 µg/mL
same,MIC50,Enterococcus hirae,4 µg/mL
same,MIC90,Enterococcus hirae,16 µg/mL
same,MIC50,Streptococcus agalactiae,0.12 µg/mL
same,MIC90,Streptococcus agalactiae,0.25 µg/mL
same,MIC50,Citrobacter koseri,32 µg/mL
same,MIC90,Citrobacter koseri,> 128 µg/mL
same,MIC,Escherichia coli [13],> 128 µg/mL
same,MIC50,Escherichia coli [13],> 128 µg/mL
same,MIC90,Escherichia coli [13],> 128 µg/mL
same,MIC50,Escherichia coli [14],2 µg/mL
same,MIC90,Escherichia coli [14],> 128 µg/mL
same,MIC,Escherichia coli [15],> 128 µg/mL
same,MIC50,Escherichia coli [15],> 128 µg/mL
same,MIC90,Escherichia coli [15],> 128 µg/mL
same,MIC50,Citrobacter freundii [16],> 128 µg/mL
same,MIC90,Citrobacter freundii [16],> 128 µg/mL
same,MIC50,Enterobacter cloacae,> 128 µg/mL
same,MIC90,Enterobacter cloacae,> 128 µg/mL
same,MIC50,Serratia marcescens [17],> 128 µg/mL
same,MIC90,Serratia marcescens [17],> 128 µg/mL
same,MIC50,Klebsiella aerogenes,4 µg/mL
same,MIC90,Klebsiella aerogenes,128 µg/mL
same,MIC50,Citrobacter freundii [18],4 µg/mL
same,MIC90,Citrobacter freundii [18],> 128 µg/mL
same,MIC50,Klebsiella pneumoniae [19],> 128 µg/mL
same,MIC90,Klebsiella pneumoniae [19],> 128 µg/mL
same,MIC50,Klebsiella pneumoniae [20],> 128 µg/mL
same,MIC90,Klebsiella pneumoniae [20],> 128 µg/mL
same,MIC50,Serratia marcescens [21],4 µg/mL
same,MIC90,Serratia marcescens [21],> 128 µg/mL
same,MIC50,Morganella morganii,8 µg/mL
same,MIC90,Morganella morganii,> 128 µg/mL
same,MIC50,Proteus mirabilis,> 128 µg/mL
same,MIC90,Proteus mirabilis,> 128 µg/mL
same,MIC50,Proteus vulgaris,64 µg/mL
same,MIC90,Proteus vulgaris,> 128 µg/mL
same,MIC50,Providencia rettgeri,2 µg/mL
same,MIC50,Acinetobacter baumannii,> 128 µg/mL
same,MIC90,Acinetobacter baumannii,> 128 µg/mL
same,MIC50,Acinetobacter junii,4 µg/mL
same,MIC90,Acinetobacter junii,128 µg/mL
same,MIC50,Acinetobacter lwoffii,4 µg/mL
same,MIC90,Acinetobacter lwoffii,128 µg/mL
